According to ChEMBL document CHEMBL1201862, “PubChem BioAssay data set” (2004):
Activity calls are given as the source filed them.

Legend:
[1] = inhibitors of SFLLRN-triggered platelet P-selectin exposure, dose response, cell-based, fluorescence, flow cytometry, human platelets (AID 2511); assay type: functional
[2] = Luminescence Cell-Based Dose Response Follow up to Identify Inhibitors of Platelet Dense Granule Release. [Related pubchem assays (depositor defined):AID1663, AID1678, AID2398]; assay type: functional
[3] = blockers of SFLLRN-triggered platelet ATP secretion – cell-based, human platelets, luminescence, dry powder, dose response (AID 493100); assay type: functional
[4] = molecular target: Envelope glycoprotein gp160 (Human immunodeficiency virus 1, UniProt Q6QLK5); assay: inhibitors of HIV fusion peptide binding, primary screen, biochemical, uHTS, fluorescence dequenching (AID 1986)
[5] = HIV-1 Env-mediated cell fusion inhibitors, dose response, CCR5-tropic Env (AID 2279); assay type: functional
[6] = molecular target: Nonstructural protein 1 (Influenza A virus, UniProt Q194T2); assay type: functional, Influenza A virus (A/California/07/2009(H1N1))
[7] = molecular target: Eukaryotic translation initiation factor 4E (Mus musculus, UniProt P63073); assay: eIF4E–eIF4G protein interaction inhibitors, dose response, biochemical, TR-FRET (AID 855); assay type: functional;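 also: potency for disrupting eIF4E binding to eIF4GI seen as loss of FRET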
[8] = test system: Vero; assay: Vero cell cytotoxicity, cytotoxicity control for flavivirus capping enzyme inhibitors (AID 588742); assay type: functional; settings: Chlorocebus sabaeus
[9] = molecular target: T1, Dual specificity protein phosphatase 6 (Rattus norvegicus, UniProt Q64346); assay: MKP-3 phosphatase inhibitors, primary screen, biochemical, rat enzyme, in vitro (AID 425)
T1 sequence (Q64346 whole entry): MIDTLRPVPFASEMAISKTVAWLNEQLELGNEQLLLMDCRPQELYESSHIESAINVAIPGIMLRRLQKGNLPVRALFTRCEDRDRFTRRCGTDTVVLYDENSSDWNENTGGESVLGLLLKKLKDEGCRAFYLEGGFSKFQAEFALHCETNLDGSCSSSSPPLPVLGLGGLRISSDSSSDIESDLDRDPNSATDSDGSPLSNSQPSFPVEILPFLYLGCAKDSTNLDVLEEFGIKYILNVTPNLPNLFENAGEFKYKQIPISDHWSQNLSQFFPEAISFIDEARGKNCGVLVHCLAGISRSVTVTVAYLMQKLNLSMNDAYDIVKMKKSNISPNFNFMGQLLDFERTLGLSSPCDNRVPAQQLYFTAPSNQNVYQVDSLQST

[10] = molecular target: T2, Small ubiquitin-related modifier 1 (Homo sapiens, UniProt P63165); assay: inhibitors of SUMO1 partner interactions, dose response, biochemical, FRET (AID 624383); assay type: functional; settings: read-out: IC50_Mean
[11] = molecular target: T3, Dual specificity protein phosphatase 3 (Homo sapiens, UniProt P51452); assay: VHR1 phosphatase inhibitors, primary screen, biochemical, absorbance, uHTS (AID 1654)
[12] = molecular target: Genome polyprotein (dengue virus type 2, UniProt P29990); assay: Dengue-2 NS5 methyltransferase inhibitors, primary screen, biochemical, confirmation dose response (AID 588689); assay type: functional
[13] = molecular target: T2, Small ubiquitin-related modifier 1; assay: inhibitors of SUMO1 peptide binding, dose response, biochemical, fluorescence polarization, uHTS hits (AID 624382); assay type: functional; settings: read-out: IC50_Mean
[14] = molecular target: DNA (cytosine-5)-methyltransferase 1 (Homo sapiens, UniProt P26358); assay: DNMT1 methyltransferase inhibitors, confirmation, biochemical, fluorescent molecular beacon (AID 602386); assay type: functional
[15] = molecular target: T3, Dual specificity protein phosphatase 3; assay: VHR1 phosphatase inhibitors, biochemical (AID 1878)
[16] = molecular target: Dual specificity tyrosine-phosphorylation-regulated kinase 1A (Rattus norvegicus, UniProt Q63470); assay type: biochemical, Homo sapiens
[17] = molecular target: DNA topoisomerase (Yersinia pestis, UniProt A0A2S9PM60); assay: Y. pestis Topo-I inhibitors, cleavage product readout, dose response, biochemical, cherry-pick (AID 588525)
[18] = Counterscreen for AddAB inhibitors: absorbance-based bacterial cell-based high throughput dose response assay for inhibitors of bacterial viability. [Related pubchem assays (depositor defined):AID435030, AID449728, AID449731, AID488942, AID488955, AID488956]; assay type: functional
[19] = molecular target: Cystic fibrosis transmembrane conductance regulator/Golgi-associated PDZ and coiled-coil motif-containing protein (Homo sapiens, UniProt P13569+Q9HD26); assay: CAL PDZ peptide-binding inhibitors, dose response, biochemical, fluorescence polarization, Cerulean-tagged CAL PDZ, cherry-picks (AID 504773)
[20] = test system: INS1; assay: beta cell apoptosis inhibitors, cytokine rescue, dose response, luminescence, retest (AID 449756); assay type: functional, cell-based; settings: Rattus norvegicus;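 also: cell death triggered by IL-1 beta plus TNF-alpha plus IFN-gamma mixture; protective hits raise ATP signal compared with cytokine alone wells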
[21] = molecular target: Beta-adrenergic receptor kinase 1 (Homo sapiens, UniProt P25098); assay: aptamer displacement from bead-bound GRK2 – biochemical, cherry pick 1, bead flow cytometry, dose response (AID 504500)
[22] = molecular target: G-protein coupled receptor 55 (Homo sapiens, UniProt Q9Y2T6); assay: GPR55 agonists via beta-arrestin recruitment, primary screen, imaging, U2OS cells, beta-arrestin-GFP redistribution (AID 1961); assay type: functional
[23] = molecular target: Exodeoxyribonuclease V (Escherichia coli (strain K12), UniProt P04993+P07648+P08394); assay: E. coli RecBCD inhibitors, dose response, counter-screen for AddAB inhibitor project, absorbance, V66 E. coli, mutant T4 phage (AID 492957); assay type: functional, cell-based, Escherichia coli str. K-12 substr. MG1655
[24] = molecular target: Voltage-gated inwardly rectifying potassium channel KCNH2 (Homo sapiens, UniProt Q12809); settings: Potency;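 also: confirmatory quantitative high-throughput screen measuring inhibition of hERG channel activity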
[25] = molecular target: Hexokinase-1 (Homo sapiens, UniProt P19367); assay: HK1 enzyme inhibition by HKDC1 hits, SAR follow-up, selectivity assay for HKDC1 inhibitor project, biochemical, set 2, resazurin fluorescence coupled readout (AID 588356); assay type: functional
[26] = molecular target: T4, Hexokinase HKDC1 (Homo sapiens, UniProt Q2TB90); assay: HKDC1 hexokinase inhibitors, SAR follow-up, biochemical, set 2 (AID 588355); assay type: functional
T4 sequence (Q2TB90 whole entry): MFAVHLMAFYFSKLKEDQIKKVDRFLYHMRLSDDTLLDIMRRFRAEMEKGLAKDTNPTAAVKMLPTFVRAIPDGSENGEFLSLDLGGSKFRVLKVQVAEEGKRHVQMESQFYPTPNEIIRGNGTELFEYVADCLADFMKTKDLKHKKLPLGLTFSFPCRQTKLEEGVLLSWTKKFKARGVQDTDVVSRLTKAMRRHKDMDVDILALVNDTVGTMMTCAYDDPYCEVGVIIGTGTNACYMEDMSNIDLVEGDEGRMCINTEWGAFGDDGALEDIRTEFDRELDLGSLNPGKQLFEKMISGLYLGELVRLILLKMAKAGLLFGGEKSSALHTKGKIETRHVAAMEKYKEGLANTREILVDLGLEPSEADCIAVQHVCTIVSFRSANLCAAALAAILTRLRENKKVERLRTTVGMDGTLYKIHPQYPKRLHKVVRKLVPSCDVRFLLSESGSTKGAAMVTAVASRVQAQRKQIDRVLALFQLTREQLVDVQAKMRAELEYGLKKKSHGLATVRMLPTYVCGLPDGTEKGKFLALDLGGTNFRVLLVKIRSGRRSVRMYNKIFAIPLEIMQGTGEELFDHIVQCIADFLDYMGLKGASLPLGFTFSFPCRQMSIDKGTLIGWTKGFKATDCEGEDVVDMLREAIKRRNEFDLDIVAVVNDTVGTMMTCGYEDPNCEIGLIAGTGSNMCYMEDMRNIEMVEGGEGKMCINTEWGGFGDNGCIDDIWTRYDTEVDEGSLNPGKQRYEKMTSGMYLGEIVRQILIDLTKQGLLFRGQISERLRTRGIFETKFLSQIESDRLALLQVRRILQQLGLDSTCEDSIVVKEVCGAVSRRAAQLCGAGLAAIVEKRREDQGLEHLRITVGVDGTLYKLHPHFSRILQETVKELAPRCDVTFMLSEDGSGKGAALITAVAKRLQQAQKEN

[27] = test system: HEK293; assay: cytotoxicity in HEK293T NF-kB-Luc cells, SAR follow-up, cytotoxicity control for NF-kB activator project, cell-based, resazurin fluorescence (AID 493251); assay type: functional; settings: Homo sapiens
[28] = test system: Jurkat; assay: SAR Analysis of small molecule inhibitors of T-cell specific antigen receptor-induced NF-kB activation in a Jurkat cell line using a luminescence assay - Set 2. [Related pubchem assays (depositor defined):AID435003, AID435012, AID465]; assay type: functional, cell-based; settings: Homo sapiens
[29] = test system: HEK293; assay: SAR Analysis of small molecule inhibitors of T-cell specific antigen receptor-induced NF-kB activation in a HEK-293T cell line using a luminescence assay - Set 2. [Related pubchem assays (depositor defined):AID435003, AID435012, AID489026]; assay type: functional, cell-based; settings: Homo sapiens
[30] = test system: A-375; assay: A375 melanoma cell viability reduction, dose response, counter-screen for MITF modulator project, cherry-pick samples, set 2 (AID 540335); assay type: functional, cell-based; settings: Homo sapiens
[31] = test system: A-375; assay: MITF: Counter assay: A375 proliferation Measured in Cell-Based System Using Plate Reader - 2084-03_Inhibitor_Dose_DryPowder_Activity. [Related pubchem assays (depositor defined):AID488944]; assay type: functional; settings: Homo sapiens
[32] = test system: Streptococcus; assay: Group A Streptococcus viability loss, dose response, counter-screen for streptokinase expression inhibitor project, luminescence, BacTiterGlo (AID 1915); assay type: functional, organism-based;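 also: potency for reduction of bacterial viability or growth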
[33] = cells; assay type: functional
[34] = test system: Escherichia coli; assay: microbe, parasite or virus in culture
[35] = molecular target: T5, DNA repair and recombination protein RAD54-like (Homo sapiens, UniProt Q92698); assay: inhibitors of human RAD54 branch migration, confirmation, biochemical, fluorescence, cherry-picked samples, dose series (AID 651657); assay type: functional
T5 sequence (Q92698 whole entry): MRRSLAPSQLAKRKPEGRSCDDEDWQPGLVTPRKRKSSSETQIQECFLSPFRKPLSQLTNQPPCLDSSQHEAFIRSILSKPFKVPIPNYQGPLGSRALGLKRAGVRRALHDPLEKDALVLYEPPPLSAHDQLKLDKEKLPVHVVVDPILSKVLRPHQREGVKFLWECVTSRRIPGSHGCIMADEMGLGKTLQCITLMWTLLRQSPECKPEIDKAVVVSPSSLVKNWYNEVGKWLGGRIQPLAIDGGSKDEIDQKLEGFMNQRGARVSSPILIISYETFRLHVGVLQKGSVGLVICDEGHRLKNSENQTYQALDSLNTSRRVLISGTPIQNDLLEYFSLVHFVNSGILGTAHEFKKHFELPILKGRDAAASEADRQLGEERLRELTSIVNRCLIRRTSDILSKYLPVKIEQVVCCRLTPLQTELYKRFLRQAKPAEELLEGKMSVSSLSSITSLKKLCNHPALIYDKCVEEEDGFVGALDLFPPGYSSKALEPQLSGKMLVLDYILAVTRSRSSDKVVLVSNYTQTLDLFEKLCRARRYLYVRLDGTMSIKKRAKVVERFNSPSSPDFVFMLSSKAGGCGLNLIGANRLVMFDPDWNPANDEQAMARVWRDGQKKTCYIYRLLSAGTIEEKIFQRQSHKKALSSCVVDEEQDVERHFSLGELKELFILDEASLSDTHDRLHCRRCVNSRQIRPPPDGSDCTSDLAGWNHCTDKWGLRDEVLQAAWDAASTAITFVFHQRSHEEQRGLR

[36] = test system: Streptococcus sp. 'group A'; assay: growth inhibition of control SK(-) GAS strain, dose response, counter-screen for streptokinase expression inhibitor project, luminescence, kanamycin, BacTiterGlo, confirmation (AID 1900); assay type: functional, organism-based
[37] = test system: Escherichia coli; assay: microbe, parasite or virus in culture; remark: listed apart in the source

T3 sequence (P51452 whole entry): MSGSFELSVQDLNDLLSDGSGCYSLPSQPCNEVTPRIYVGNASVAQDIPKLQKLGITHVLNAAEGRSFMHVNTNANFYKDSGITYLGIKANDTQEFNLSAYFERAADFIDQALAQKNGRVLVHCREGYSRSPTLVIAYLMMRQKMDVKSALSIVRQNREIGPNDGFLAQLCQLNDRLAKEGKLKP
T2 sequence (P63165 whole entry): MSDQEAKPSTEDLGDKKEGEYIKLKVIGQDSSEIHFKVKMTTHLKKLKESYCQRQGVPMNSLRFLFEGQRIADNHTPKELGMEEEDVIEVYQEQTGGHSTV
Sequence of Genome polyprotein (P29990 2492-3391 limits assumed): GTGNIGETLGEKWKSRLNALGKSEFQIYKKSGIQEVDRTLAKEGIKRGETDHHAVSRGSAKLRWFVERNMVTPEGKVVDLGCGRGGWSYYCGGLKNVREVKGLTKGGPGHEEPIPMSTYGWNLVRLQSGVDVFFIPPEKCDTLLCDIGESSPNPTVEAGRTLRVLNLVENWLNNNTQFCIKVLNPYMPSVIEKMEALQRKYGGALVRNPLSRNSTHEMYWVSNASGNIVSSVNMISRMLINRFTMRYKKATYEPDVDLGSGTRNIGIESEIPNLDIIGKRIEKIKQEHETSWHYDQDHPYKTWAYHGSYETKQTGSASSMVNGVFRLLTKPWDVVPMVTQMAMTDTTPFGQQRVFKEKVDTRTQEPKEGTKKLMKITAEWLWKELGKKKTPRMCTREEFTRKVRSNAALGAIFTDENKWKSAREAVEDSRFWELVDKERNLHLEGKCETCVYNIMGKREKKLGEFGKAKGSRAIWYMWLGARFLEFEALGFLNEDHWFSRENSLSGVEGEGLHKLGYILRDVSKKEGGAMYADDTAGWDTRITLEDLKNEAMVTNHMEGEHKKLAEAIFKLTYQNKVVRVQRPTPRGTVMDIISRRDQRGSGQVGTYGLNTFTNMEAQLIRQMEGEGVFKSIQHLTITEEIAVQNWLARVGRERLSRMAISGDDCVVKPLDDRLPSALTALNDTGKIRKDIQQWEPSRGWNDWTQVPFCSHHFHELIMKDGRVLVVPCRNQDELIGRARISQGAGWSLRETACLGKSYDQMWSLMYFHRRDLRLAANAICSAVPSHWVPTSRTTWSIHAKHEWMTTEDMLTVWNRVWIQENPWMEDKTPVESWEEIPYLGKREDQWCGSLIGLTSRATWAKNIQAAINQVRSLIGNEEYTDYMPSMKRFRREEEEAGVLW
Sequence of Envelope glycoprotein gp160 (Q6QLK5 whole entry, the tested form may be a part): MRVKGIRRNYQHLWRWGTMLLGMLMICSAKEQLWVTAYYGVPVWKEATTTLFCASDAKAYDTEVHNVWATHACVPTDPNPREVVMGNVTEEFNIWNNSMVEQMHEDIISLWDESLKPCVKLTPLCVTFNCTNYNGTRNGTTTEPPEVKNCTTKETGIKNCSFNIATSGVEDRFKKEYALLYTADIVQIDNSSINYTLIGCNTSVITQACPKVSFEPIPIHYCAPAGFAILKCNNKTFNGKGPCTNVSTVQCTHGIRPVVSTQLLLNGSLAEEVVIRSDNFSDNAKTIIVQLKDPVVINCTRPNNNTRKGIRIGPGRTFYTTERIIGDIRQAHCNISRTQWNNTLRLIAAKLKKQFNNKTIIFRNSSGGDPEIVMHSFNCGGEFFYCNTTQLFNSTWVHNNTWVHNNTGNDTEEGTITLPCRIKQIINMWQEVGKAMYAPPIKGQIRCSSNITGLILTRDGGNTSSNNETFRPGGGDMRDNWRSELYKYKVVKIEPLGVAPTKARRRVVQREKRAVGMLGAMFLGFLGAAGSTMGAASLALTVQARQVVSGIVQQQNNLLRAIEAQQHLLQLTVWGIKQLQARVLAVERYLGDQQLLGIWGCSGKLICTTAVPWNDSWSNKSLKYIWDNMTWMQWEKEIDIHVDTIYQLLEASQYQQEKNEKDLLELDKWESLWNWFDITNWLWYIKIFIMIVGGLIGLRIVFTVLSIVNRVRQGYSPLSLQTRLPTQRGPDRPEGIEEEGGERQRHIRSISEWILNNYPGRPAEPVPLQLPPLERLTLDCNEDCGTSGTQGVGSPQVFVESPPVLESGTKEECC
Sequence of Exodeoxyribonuclease V (P04993 whole entry): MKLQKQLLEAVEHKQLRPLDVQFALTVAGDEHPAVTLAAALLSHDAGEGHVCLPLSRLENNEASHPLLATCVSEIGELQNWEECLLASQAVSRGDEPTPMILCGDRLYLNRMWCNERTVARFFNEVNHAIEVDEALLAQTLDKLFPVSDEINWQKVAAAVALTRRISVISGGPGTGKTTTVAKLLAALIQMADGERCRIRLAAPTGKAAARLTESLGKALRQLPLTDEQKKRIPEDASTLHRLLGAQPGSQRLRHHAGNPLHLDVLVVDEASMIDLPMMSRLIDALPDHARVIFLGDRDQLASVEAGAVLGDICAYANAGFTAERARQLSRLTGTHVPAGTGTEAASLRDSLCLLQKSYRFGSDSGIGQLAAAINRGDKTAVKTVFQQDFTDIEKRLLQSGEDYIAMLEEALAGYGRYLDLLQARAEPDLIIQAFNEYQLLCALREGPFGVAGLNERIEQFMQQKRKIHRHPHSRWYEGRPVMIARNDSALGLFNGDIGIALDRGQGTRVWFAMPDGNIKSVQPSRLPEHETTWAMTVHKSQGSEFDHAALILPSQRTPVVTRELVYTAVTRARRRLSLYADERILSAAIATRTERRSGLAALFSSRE
Sequence of Exodeoxyribonuclease V (P07648 whole entry): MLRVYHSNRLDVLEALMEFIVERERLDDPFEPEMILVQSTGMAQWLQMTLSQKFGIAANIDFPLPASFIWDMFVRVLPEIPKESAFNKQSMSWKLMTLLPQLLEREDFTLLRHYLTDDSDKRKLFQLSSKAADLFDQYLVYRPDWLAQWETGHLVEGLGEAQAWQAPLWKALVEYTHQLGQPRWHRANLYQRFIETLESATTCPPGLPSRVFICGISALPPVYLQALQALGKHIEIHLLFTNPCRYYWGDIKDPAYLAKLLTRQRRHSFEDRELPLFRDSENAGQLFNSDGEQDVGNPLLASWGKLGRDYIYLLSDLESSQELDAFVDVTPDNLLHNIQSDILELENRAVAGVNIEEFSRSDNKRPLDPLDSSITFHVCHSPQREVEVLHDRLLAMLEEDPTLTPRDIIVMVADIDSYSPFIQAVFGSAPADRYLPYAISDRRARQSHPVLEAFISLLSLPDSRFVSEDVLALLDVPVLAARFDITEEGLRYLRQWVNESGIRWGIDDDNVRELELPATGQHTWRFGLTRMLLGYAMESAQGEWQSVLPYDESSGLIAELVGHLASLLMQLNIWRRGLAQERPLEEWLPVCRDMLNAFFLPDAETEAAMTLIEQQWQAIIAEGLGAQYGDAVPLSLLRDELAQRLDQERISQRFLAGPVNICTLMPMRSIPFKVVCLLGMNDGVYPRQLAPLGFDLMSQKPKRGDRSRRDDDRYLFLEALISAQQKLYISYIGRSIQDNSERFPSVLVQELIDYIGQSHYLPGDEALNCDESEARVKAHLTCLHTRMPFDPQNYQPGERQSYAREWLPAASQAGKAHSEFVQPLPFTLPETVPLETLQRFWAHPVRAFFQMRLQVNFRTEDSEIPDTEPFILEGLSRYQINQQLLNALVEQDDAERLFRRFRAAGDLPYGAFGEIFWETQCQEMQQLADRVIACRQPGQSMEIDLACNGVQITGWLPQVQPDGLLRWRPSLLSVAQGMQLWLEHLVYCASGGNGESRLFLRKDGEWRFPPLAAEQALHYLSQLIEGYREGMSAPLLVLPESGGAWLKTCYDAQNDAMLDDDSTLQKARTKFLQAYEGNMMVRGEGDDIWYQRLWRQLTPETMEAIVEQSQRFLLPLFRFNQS
Sequence of Exodeoxyribonuclease V (P08394 whole entry): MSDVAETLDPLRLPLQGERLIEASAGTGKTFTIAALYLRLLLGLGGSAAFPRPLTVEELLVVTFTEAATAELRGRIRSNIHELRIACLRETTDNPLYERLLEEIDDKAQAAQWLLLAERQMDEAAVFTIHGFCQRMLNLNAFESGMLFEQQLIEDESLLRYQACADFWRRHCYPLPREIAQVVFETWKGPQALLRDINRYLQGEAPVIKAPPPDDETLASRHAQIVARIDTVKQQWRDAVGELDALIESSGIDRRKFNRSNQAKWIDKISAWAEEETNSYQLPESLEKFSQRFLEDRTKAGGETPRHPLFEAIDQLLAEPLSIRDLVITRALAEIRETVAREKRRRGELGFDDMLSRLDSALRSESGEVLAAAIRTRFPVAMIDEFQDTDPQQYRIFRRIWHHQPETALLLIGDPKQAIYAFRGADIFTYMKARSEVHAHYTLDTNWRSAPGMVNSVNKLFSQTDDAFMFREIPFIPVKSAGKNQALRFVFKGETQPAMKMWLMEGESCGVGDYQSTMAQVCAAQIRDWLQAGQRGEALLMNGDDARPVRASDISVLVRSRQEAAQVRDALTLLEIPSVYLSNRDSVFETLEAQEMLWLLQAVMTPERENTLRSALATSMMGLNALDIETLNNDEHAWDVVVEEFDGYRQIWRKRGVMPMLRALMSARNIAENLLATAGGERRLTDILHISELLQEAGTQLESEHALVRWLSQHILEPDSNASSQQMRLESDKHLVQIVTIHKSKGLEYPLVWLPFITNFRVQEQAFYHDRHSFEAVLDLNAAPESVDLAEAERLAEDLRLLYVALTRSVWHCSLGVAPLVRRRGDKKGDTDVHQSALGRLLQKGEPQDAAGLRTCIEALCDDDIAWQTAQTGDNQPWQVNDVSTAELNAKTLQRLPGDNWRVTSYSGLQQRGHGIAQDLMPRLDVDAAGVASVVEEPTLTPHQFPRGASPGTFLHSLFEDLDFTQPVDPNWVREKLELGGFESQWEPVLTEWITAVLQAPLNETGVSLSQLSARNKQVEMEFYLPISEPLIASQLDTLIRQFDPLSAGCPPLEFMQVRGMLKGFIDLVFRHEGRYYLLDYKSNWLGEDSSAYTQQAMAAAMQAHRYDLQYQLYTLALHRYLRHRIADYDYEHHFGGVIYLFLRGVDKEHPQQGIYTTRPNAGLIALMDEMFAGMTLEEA

Cc1ccc(-c2c(C#N)c(N)n(-c3ccc(Cl)cc3)c(=O)c2C#N)cc1
EC50 [1]: < 3 µM (active)
EC50 [2]: 9.21 µM (active)
AC50 [3]: 20.4 µM (active)

COc1cc(/C=C2\SC(=O)N(Cc3ccc(Cl)cc3)C2=O)cc([N+](=O)[O-])c1O
IC50 [4]: 14.9 µM (active)
IC50 [5]: > 50 µM (active)
IC50 [6]: 26.9 µM (active)
IC50 [7]: 36.7 µM (inactive)
CC50 [8]: > 40 µM (active)
IC50 [9]: > 158 µM (not active)
IC50 [10]: 6.99 µM (active)
IC50 [11]: 4.68 µM (active)
IC50 [12]: 67.5 µM (active)
IC50 [13]: > 66.6 µM (inactive)
IC50 [14]: 4.6 µM (active)
IC50 [15]: 3.54 µM (active)

c1nc2sc3c(c2c2nnnn12)CCCC3
AC50 [16]: 63.2 µM (active)

CSc1ccccc1OCc1cc(C(=O)NCCCc2ccccc2)no1
AC50 [17]: 17 µM (active)

O=C(c1ccccc1)c1c2c(cc3sc4ccccc4[n+]13)-c1cccc3cccc-2c13
IC50 [18]: 15.1 µM (inactive)
AC50 [19]: 72.6 µM (active)
AC50 [20]: 2.05 µM (active)
EC50 [21]: 0.06 µM (active)
EC50 [22]: > 32 µM (inactive)
IC50 [23]: 91.3 µM (inactive)

O=[N+]([O-])c1cccc(Cl)c1Cl
AC50 [24]: 50.1 µM (inconclusive)

O=C(NC1C(=O)N(CCN2CCOCC2)c2ccccc21)c1ccccc1 (configuration not stated)
IC50 [25]: > 80 µM (inactive)
IC50 [26]: > 80 µM (inactive)

O=C(Nc1ccc2c(c1)CCO2)c1ccc([N+](=O)[O-])o1
IC50 [27]: 59.5 µM (inactive)
IC50 [28]: 33.8 µM (inactive)
IC50 [29]: 45.6 µM (inactive)

CSC(=N)N/N=C/c1ccc2c(c1)OCO2
AC50 [30]: > 35 µM (active)
AC50 [31]: > 35 µM (active)

NC1CCN(c2c(F)cc3c(=O)c(C(=O)O)cn(C4CC4)c3c2Cl)C1 (configuration not stated) [CLINAFLOXACIN]
EC50 [32]: 0.142 µM (active)
IC50 [33]: 0.15 µM (active)
AC50 [34]: 0.816 µM (active)
AC50 [35]: 41.4 µM (active)
EC50 [36]: 0.115 µM (active)
AC50 [37]: 4.49 µM (active)
